In one data set the test system is peripheral acetylcholine-like effects. Kind of data set: Side effect profile: in vivo overt effects (salivation, tremor, diarrhea) after oral administration. Also on record: species or system rat. To be noted: (rat) po. From the text: The use of the radioligand binding assays (^3 H-QNB and ^3 H-CD) to characterize the hydroxylated oxotremorine derivatives provides a useful first approximation for,the evaluation of the muscarinic agonist-like profile of a test compound. However, in using a prodrug methodology, intrinsic activity will not be observed until in vivo hydrolysis or metabolism to the active compound occurs. Therefore, radioligand binding data, performed on the carbonyl derivatives, will not provide leading information. As a result, the observed overt effects after oral administration to rats of the test carbonyl derivative, relative to its corresponding hydroxylated oxotremorine compound, became the primary in vivo pharmacological measure. These in vivo overt effects are attributed to the peripheral acetylcholine-like effects of the compound, such as salivation, tremor and diarrhea. The in vivo overt effects also providing dosing information for the behavioral tests of cognitive improvement.
Regarding `CCCCCCCC(=O)O[C@@H]1CCN(CC#CCN2CCCC2)C1=O` [(R)-Octanoic acid 2-oxo-1-[4-(1-pyrrolidinyl)-2-butynyl]-3-pyrrolidinyl ester], the “Side Effect Profile minimum effective dose (MED)” value was 14 μ mol/kg. As for `CCCCCCCC(=O)O[C@@H]1CCN(CC#CCN(C)C)C1=O` [(R)-Octanoic acid 1-[4-(dimethylamino)-2-butynyl]-2-oxo-3-pyrrolidinyl ester], the “Side Effect Profile minimum effective dose (MED)” value was 508 μ mol/kg. Still for that read-out and setting: to `CCCCCC(=O)O[C@H]1CCN(CC#CCN(C)C)C1=O` [(S)-Hexanoic acid 1-[4-(dimethylamino)-2-butynyl]-2-oxo-3-pyrrolidinyl ester] belongs 5.9 μ mol/kg; to `CCCCCCCC(=O)O[C@H]1CCN(CC#CCN2CCCC2)C1=O`, 14 μ mol/kg. In the case of `CCCCCCOC(=O)O[C@@H]1CCN(CC#CCN2CCCC2)C1=O` [(R)-2-Oxo-1-[4-(1-pyrrolidinyl)-2-butynyl]-3-pyrrolidinyl carbonic acid hexyl ester], the “Side Effect Profile minimum effective dose (MED)” value came to 7 μ mol/kg. As for `CCCCCC(=O)O[C@@H]1CCN(CC#CCN2CCCC2)C1=O` [(R)-Hexanoic acid 2-oxo-1-[4-(1-pyrrolidinyl)-2-butynyl]-3-pyrrolidinyl ester], the “Side Effect Profile minimum effective dose (MED)” value was found to be 7.0 μ mol/kg. `CCOC(=O)O[C@H]1CCN(CC#CCN(C)C)C1=O` [(S)-1-[4-(Dimethylamino)-2-butynyl]-2-oxo-3-pyrrolidinyl carbonic acid ethyl ester]: the “Side Effect Profile minimum effective dose (MED)” value was 2.2 μ mol/kg.

As to `CCCC(=O)O[C@H]1CCN(CC#CCN2CCCC2)C1=O` [(S)-Butanoic acid 2-oxo-1-[4-(1-pyrrolidinyl)-2-butynyl]-3-pyrrolidinyl ester], the “Side Effect Profile minimum effective dose (MED)” value is 1.7 μ mol/kg. Same read-out and setting: the same measure for `CCCCCCCCNC(=O)O[C@H]1CCN(CC#CCN2CCCC2)C1=O` [(S)-Octylcarbamic acid 2-oxo-1-[4-(1-pyrrolidinyl)-2-butynyl]-3-pyrrolidinyl ester]: above 450 μ mol/kg.

Regarding `CCNC(=O)O[C@@H]1CCN(CC#CCN(C)C)C1=O` [(R)-Ethylcarbamic acid 1-[4-(dimethylamino)-2-butynyl]-2-oxo-3-pyrrolidinyl ester], the “Side Effect Profile minimum effective dose (MED)” value is given as above 510 μ mol/kg.

With `CCCC(=O)O[C@H]1CCN(CC#CCN(C)C)C1=O` [(S)-Butanoic acid 1-[4-(dimethylamino)-2-butynyl]-2-oxo-3-pyrrolidinyl ester], the “Side Effect Profile minimum effective dose (MED)” value was determined as 8.0 μ mol/kg. Same read-out and setting: to `CCCC(=O)O[C@@H]1CCN(CC#CCN2CCCC2)C1=O` [(R)-Butanoic acid 2-oxo-1-[4-(1-pyrrolidinyl)-2-butynyl]-3-pyrrolidinyl ester] belongs 7.2 μ mol/kg; to `CCCCCCNC(=O)O[C@@H]1CCN(CC#CCN2CCCC2)C1=O` [(R)-Hexylcarbamic acid 2-oxo-1-[4-(1-pyrrolidinyl)-2-butynyl]-3-pyrrolidinyl ester], above 450 μ mol/kg; to `CCCCNC(=O)O[C@H]1CCN(CC#CCN2CCCC2)C1=O` [(S)-Butylcarbamic acid 1-2-oxo-[4-(1-pyrrolidinyl)-2-butynyl]-3-pyrrolidinyl ester], 225 μ mol/kg. As for `CCOC(=O)O[C@H]1CCN(CC#CCN2CCCC2)C1=O` [(S)-2-Oxo-1-[4-(1-pyrrolidinyl)-2-butynyl]-3-pyrrolidinyl carbonic acid ethyl ester], the “Side Effect Profile minimum effective dose (MED)” value came out at 1.7 μ mol/kg.

Tested on in a further data set: not listed separately
As to the kind of experiment: Stability remark in Table V. Format: physicochemical. To be noted: in place of the optical rotation.
Turning to `O=C1[C@@H](O)CCN1CC#CCN1CCC1` [Example 31, (S)-3-Hydroxy-1-[4-(1-azetidinyl)-2-butynyl]-2-pyrrolidinone], the “stability (in words)” value is listed as “not stable”. Consider `O=C1[C@H](O)CCN1CC#CCN1CCC1` [Example 33, (R)-3-Hydroxy-1-[4-(1-azetidinyl)-2-butynyl]-2-pyrrolidinone], for which the “stability (in words)” value is given as “not stable”.

The next data set concerns SDAT patients.
Experiment: not given
As to conditions: cited from earlier work.
`COC(=O)C1=CCCN(C)C1` [arecoline]: the “improvement in SDAT patients compared to physostigmine” value was “more consistent improvement when compared to the anticholinergic inhibitor physostigmine”.

Values taken from patent publication US5637731A (priority 1996, dated 1997).
